Data on 25 compounds can be found in ChEMBL document CHEMBL4433240, “Identification and characterization of potent and selective inhibitors targeting protein tyrosine phosphatase 1B (PTP1B)” (Bioorg Med Chem Lett, 2019).

Data set [1] deals with T1, Tyrosine-protein phosphatase non-receptor type 1 (Homo sapiens, UniProt P18031).
T1 sequence (P18031 whole entry): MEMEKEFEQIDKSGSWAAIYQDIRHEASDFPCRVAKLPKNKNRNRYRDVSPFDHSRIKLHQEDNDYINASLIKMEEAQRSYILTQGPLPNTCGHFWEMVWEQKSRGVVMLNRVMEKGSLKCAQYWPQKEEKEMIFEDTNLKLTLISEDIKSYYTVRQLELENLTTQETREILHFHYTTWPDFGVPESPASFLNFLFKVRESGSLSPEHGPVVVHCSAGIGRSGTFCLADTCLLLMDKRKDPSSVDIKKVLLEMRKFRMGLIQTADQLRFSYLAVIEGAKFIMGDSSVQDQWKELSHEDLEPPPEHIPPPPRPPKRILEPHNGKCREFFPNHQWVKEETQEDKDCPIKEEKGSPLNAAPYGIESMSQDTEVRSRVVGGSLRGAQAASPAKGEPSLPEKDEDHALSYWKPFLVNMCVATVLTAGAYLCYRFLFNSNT
The experiment in a line: Inhibition of PTP1B (unknown origin) assessed as reduction in nitrophenol production using pNPP as substrate incubated for 30 mins by EnVisionMultilable plate reader based method.

The target of data set [2] is T2, Tyrosine-protein phosphatase non-receptor type 2 (Homo sapiens, UniProt P17706).
T2 sequence (P17706 whole entry): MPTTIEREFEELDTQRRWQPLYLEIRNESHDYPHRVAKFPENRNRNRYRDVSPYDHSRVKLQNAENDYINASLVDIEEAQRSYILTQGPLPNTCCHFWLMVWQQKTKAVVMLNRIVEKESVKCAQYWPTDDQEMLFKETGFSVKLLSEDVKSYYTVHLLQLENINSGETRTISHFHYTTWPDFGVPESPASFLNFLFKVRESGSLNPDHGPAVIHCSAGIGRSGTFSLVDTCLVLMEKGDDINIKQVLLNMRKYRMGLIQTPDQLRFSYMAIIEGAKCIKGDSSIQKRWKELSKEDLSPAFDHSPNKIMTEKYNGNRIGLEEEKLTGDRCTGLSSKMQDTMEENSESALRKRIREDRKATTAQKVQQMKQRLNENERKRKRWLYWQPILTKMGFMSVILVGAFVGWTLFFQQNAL
The experiment in a line: Inhibition of TCPTP (unknown origin) assessed as reduction in nitrophenol production using pNPP as substrate incubated for 30 mins by EnVisionMultilable plate reader based method.

For data set [3], the species on record is Homo sapiens. The experiment in a line: Selectivity ratio of IC50 for TCPTP (unknown origin) using pNPP as substrate to IC50 for PTP1B (unknown origin) using pNPP as substrate.
For data set [4], the target named is T3, Tyrosine-protein phosphatase non-receptor type 1 (Homo sapiens) (UniProt P18031).
T3 sequence (whole entry): T1 sequence (P18031 whole entry)
The experiment in a line: Competitive inhibition of PTP1B (unknown origin) assessed as increase in Km at 0 to 9.6 uM using varying levels of pNPP as substrate by Lineweaver-Burk plot analysis.

Data set [5] addresses T3, Tyrosine-protein phosphatase non-receptor type 1 (Homo sapiens). Put plainly: Competitive inhibition of PTP1B (unknown origin) assessed as change in V max at 0 to 9.6 uM using varying levels of pNPP as substrate by Lineweaver-Burk plot analysis.
Data set [6] in a line: Cytotoxicity against human L02 cells assessed as cell viability at 1 to 250 uM after 72 hrs by WST1 assay. Type of data set: cell-based. Particulars: read-out: Activity. Background: Tetrazolium assays rely on reduction of a dye to a coloured formazan, in cell work by metabolically active cells.
In another data set the test system is L02. Put plainly: Cytotoxicity against human L02 cells assessed as reduction in cell viability after 72 hrs by WST1 assay. Format: cell-based. Particulars: L02, 72 h.
The species named for data set [7] is Homo sapiens. The experiment in a line: Selectivity ratio of IC50 for TCPTP (unknown origin) to IC50 for human GST-tagged PTP1B.
For data set [8], the target named is T3, Tyrosine-protein phosphatase non-receptor type 1 (Homo sapiens). The experiment in a line: Competitive inhibition of PTP1B (unknown origin) assessed as increase in Km at 0 to 28.8 uM using varying levels of pNPP as substrate by Lineweaver-Burk plot analysis.
The target is the same in data set [9]. Put plainly: Competitive inhibition of PTP1B (unknown origin) assessed as change in V max at 0 to 28.8 uM using varying levels of pNPP as substrate by Lineweaver-Burk plot analysis.
The target in data set [10] is T1, Tyrosine-protein phosphatase non-receptor type 1. The experiment in a line: Inhibition of human FLAG-tagged PTP1B catalytic domain (1 to 298) expressed in Escherichia coli using fluorescein diphosphate as substrate by fluorescence based method.
The target in data set [11] is T2, Tyrosine-protein phosphatase non-receptor type 2. Put plainly: Inhibition of human FLAG-tagged TCPTP (1 to 296) expressed in Escherichia coli using fluorescein diphosphate as substrate by fluorescence based method.

Broadly, the IC50 is the concentration needed to halve the response being measured.

SMILES strings stand for the structures. The source made the active and inactive calls. The rule behind the calls is not given here. A value given as a limit tells only on which side of the number the result lay.

`COC(=O)C1=C(C(C)C)NC(=S)N[C@H]1/C=C/c1ccc(Br)cc1`: the values for the concentration for half-maximal inhibition (IC50) in [1] and in data set [2] were 6.28 µM and above 100 µM, respectively. The Ratio IC50 in the data set listed under Homo sapiens [3] was above 15.9.
In the case of `CCOC(=O)C1=C(C(C)C)NC(=S)N[C@H]1/C=C/c1ccccc1`, the IC50 in [1] is above 50 µM.
Still for that read-out and setting: the result for `COC(=O)C1=C(C(C)(C)C)NC(=S)N[C@H]1/C=C/c1ccccc1` reads above 50 µM.
Take `COC(=O)C1=C(C(C)(C)C)NC(=S)N[C@H]1/C=C/c1ccc(Br)cc1`: the half-maximal inhibitory concentration (IC50) was 11 µM in [1] and 36 µM in data set [2]. Also, the Ratio IC50 in the data set listed under Homo sapiens [3] is 3.28.
Turning to `CCOC(=O)C1=C(C(C)C)NC(=S)N[C@H]1/C=C/c1ccc(OC)cc1`, the IC50 in [1] came to 2.38 µM; in data set [2], 40.4 µM. For the same compound, the Ratio IC50 in the data set listed under Homo sapiens [3] was determined as 17.
The corresponding values for `CCOC(=O)C1=C(C(C)C)NC(=S)N[C@H]1/C=C/c1ccc(Cl)cc1` are 4.79 µM, 35.8 µM and 7.47.
`CCOC(=O)C1=C(C(C)C)NC(=S)N[C@H]1/C=C/c1ccc([N+](=O)[O-])cc1`: the IC50 in [1] was above 50 µM; in data set [2] it was above 100 µM.
For `COC(=O)C1=C(C(C)C)NC(=S)N[C@H]1/C=C/c1ccc(C(F)(F)F)cc1`, the results for the half-inhibitory concentration (IC50) in [1] and in data set [2] were 5.49 µM and above 100 µM, respectively. The Ratio IC50 in the data set listed under Homo sapiens [3] is above 18.2.
As to `COC(=O)C1=C(C(C)C)NC(=S)N[C@H]1/C=C/c1ccc([N+](=O)[O-])cc1`, the half-inhibitory concentration (IC50) in data set [1] was above 50 µM.
`CCOC(=O)C1=C(C(C)C)NC(=S)N[C@H]1/C=C/c1ccc(C)cc1`: the values for the half-inhibitory concentration (IC50) in [1] and in data set [2] were 7.49 µM and above 100 µM, respectively. In the data set filed under Homo sapiens [3], the Ratio IC50 is above 13.3.
With `CCOC(=O)C1=C(C(C)C)NC(=S)N[C@H]1/C=C/c1ccc(F)cc1`, the IC50 in data set [1] is above 50 µM.
With `COC(=O)C1=C(C(C)(C)C)NC(=S)N[C@H]1/C=C/c1ccc(Cl)cc1`, the IC50 in [1] worked out at 6.65 µM; in data set [2] it was 54.8 µM. In addition, the Ratio IC50 in the data set filed under Homo sapiens [3] worked out at 8.24.
For `CCOC(=O)C1=C(C(C)C)NC(=S)N[C@H]1/C=C/c1ccc(C(F)(F)F)cc1`, in that order: 10.3 µM, above 100 µM and above 9.66.
With `COC(=O)C1=C(C(C)C)NC(=S)N[C@H]1/C=C/c1ccc(Cl)cc1`, the IC50 in [1] was 7.12 µM; in [2], above 100 µM; in the data set with L02, above 250 µM. For the same compound, the Ratio IC50 in the data set filed under Homo sapiens [3] is above 14. The inhibition result in data set [4] and in [5] was “Active” each time. Also, the viability at 72 h, up to 250 µM in data set [6] was above 85%.
With `CC(C)OCc1cc(O)c(O)c(Br)c1Cc1cc(O)c(O)c(Br)c1Br`, the Ratio IC50 in the data set listed under Homo sapiens [7] was above 50.
Take `COC(=O)C1=C(C(C)(C)C)NC(=S)N[C@H]1/C=C/c1ccc(C(F)(F)F)cc1`: the half-maximal inhibitory concentration (IC50) was 6.31 µM in data set [1] and above 100 µM in data set [2]. Further, the Ratio IC50 in the data set filed under Homo sapiens [3] is above 15.8.
The corresponding values for `COC(=O)C1=C(C(C)(C)C)NC(=S)N[C@H]1/C=C/c1ccc(C)cc1` are 16.3 µM, above 100 µM and above 6.13.
The corresponding values for `COC(=O)C1=C(C(C)(C)C)NC(=S)N[C@H]1/C=C/c1ccc([N+](=O)[O-])cc1` are 11.4 µM, above 100 µM and above 8.79.
For `COC(=O)C1=C(C(C)C)NC(=S)N[C@H]1/C=C/c1ccccc1`, in that order: 18.6 µM, above 100 µM and above 5.39.
As to `COC(=O)C1=C(C(C)C)NC(=S)N[C@H]1/C=C/c1ccc(F)cc1`, the figures for the IC50 (in [1]; in data set [2]; in the data set with L02) were 3.33 µM, above 100 µM and above 250 µM, respectively. In the data set listed under Homo sapiens [3], the Ratio IC50 was above 30. Moreover, the inhibition result in [8] and in [9] was “Active” throughout. Also, the viability at 72 h, up to 250 µM in data set [6] is above 85%.
On to `CC1(C)CC[C@]2(C(=O)O)CC[C@]3(C)C(=CC[C@@H]4[C@@]5(C)CC[C@H](O)C(C)(C)[C@@H]5CC[C@]43C)[C@@H]2C1` [OLEANOLIC_ACID], for which the viability at 72 h, up to 250 µM in [6] is below 85%.
For the compound `COC(=O)C1=C(C(C)(C)C)NC(=S)N[C@H]1/C=C/c1ccc(F)cc1`, in [1], the IC50 was above 50 µM.
On to `CCOC(=O)C1=C(C(C)C)NC(=S)N[C@H]1/C=C/c1ccc(Br)cc1`, for which the half-maximal inhibitory concentration (IC50) in [1] is 11.3 µM; in data set [2], above 100 µM. Besides, the Ratio IC50 in the data set filed under Homo sapiens [3] is above 8.85.
Turning to `COC(CC(C)C)c1ccc2ccc(-c3ccc(CC(Cc4ccc(C(F)(F)P(=O)(O)O)cc4)(c4ccccc4)n4nnc5ccccc54)cc3)c(P(=O)(O)O)c2n1` (configuration not stated), the values for the 50% inhibitory concentration (IC50) in [10] and in data set [11] were 0.005 µM and 0.036 µM, respectively.
As to `COC(=O)C1=C(C(C)(C)C)NC(=S)N[C@H]1/C=C/c1ccc(OC)cc1`, the half-maximal inhibitory concentration (IC50) was 5.03 µM in data set [1] and above 100 µM in [2]. Besides, in the data set listed under Homo sapiens [3], the Ratio IC50 was above 19.9.
